Experimental data reported in US20240401027A1, “METHOD FOR IMPROVED INTRON TAGGING AND AUTOMATED CLONE RECOGNITION” (PROXYGEN GMBH, priority 2021, published 2024).

System: pool of HAP1 cells expressing GFP-tagged proteins
Test: Live cell imaging of GFP-tagged HAP1 cell pool and arrayed clones: compound effects on levels and localization of tagged proteins
Assay type: cell-based, human
Method: Live cell imaging was performed on a PerkinElmer Opera Phenix microscope with excitation laser 488 nm, and emission filter 500-550 nm, 700 ms.
Identification of the expressed sgRNAs by in situ sequencing was performed by following and modifying published protocols, see, e.g., Feldman (2019) loc. cit; Ke (2013) Nat Methods 10, 857-60; and Larsson (2010) Nat Methods 7, 395-7.
Reverse transcription mix (1× RevertAid RT buffer, 250 µM dNTPs, 0.2 mg/mL BSA, 1 µM RT primer, 0.8 U/mL Ribolock RNase inhibitor, and 4.8 U/mL RevertAid H minus reverse transcriptase) was added to the sample and incubated for 16 hours at 37° C. Following reverse transcription, cells were washed 5 times with PBS-T and post-fixed with 3% paraformaldehyde and 0.1% glutaraldehyde for 30 minutes at room temperature and washed 5 times with PBS-T. Cells were incubated in a padlock probe and extension-ligation reaction mix (1× Ampligase buffer, 0.4 U/mL RNase H, 0.2 mg/mL BSA, 100 nM padlock probe, 0.02 U/mL KlenTaq polymerase, 0.5 U/mL Ampligase and […]) for 5 minutes at 37° C. and 90 minutes at 45° C., and then washed 2 times with PBS-T. Circularized padlocks were amplified with rolling circle amplification mix (1× Phi29 buffer, 250 µM dNTPs, 0.2 mg/mL BSA, 5% glycerol, and 1 U/mL Phi29 DNA polymerase) at 30° C. for 4 hours. Rolling circle amplicons were prepared for sequencing by hybridizing a mix containing sequencing primer oSBS_CROP-seq (1 µM primer in 2×SSC+10% formamide) for 30 minutes at room temperature. Barcodes were read out using sequencing-by-synthesis reagents from the Illumina NextSeq 500/550 kit v2 (Illumina 15057934). First, samples were washed with incorporation buffer (NextSeq 500/550 buffer cartridge, position 35) and incubated for 4 minutes in incorporation mix (NextSeq 500/550 reagent cartridge, position 31) at 60° C. Samples were then washed with incorporation buffer (4 washes, 60° C. for 4 minutes at the last wash) and placed in scan mix (NextSeq 500/550 reagent cartridge, position 30) for imaging. Imaging was performed on a PerkinElmer Opera Phenix microscope with excitation laser: 561 nm, emission filter: 570-630, 500 ms; excitation laser: 640 nm, emission filter: 650-760 nm, 500 ms using a 63× water immersion objective, confocal mode. Based were detected as follows: Base T: signal in 561 channel; Base C: signal in 640 channel, Base A: (weaker) signal in both channels, Base G: no signal. Following each imaging cycle, samples were washed with the cleavage mix (NextSeq 500/550 reagent cartridge, position 29) once followed by incubation with cleavage mix for 4 minutes at 60° C. to remove dye terminators. Samples were washed 5 times with incorporation buffer before starting the next cycle.
It was reasoned that the highly diverse pool of cells expressing GFP-tagged proteins can be used to identify compounds that change protein levels or localization of any of the tagged proteins. […] The application of the CROP-seq vector16 that expresses the sgRNA sequence in a polyadenylated mRNA transcript enables the cell-specific identification of the targeted intron by situ sequencing (see also Feldman, D. et al. Cell 179, 787-799 e17 (2019), Ke, R. et al. Nat Methods 10, 857-60 (2013), Larsson, C. et al. Nat Methods 7, 395-7 (2010). 17-19). To map targeted introns, the cell pool was fixed and a modified in situ sequencing protocol was developed to identify the sgRNA sequence integrated into individual cells in the pool. Based on the library diversity, eight cycles of nucleotide incorporation and imaging are sufficient to unambiguously assign sgRNA sequences (FIG. 6c). Application of this protocol to the cell pool confirmed that in clones with drastic loss of signal GFP was indeed targeted to BRD4 (FIG. 6d).
Therefore, the cell pool was treated with methotrexate (MTX), an antimetabolite impairing DNA and RNA synthesis and causing DNA damage by inhibiting tetrahydrofolate metabolism. […]

[1] = dBET6-treated cell pool, FIG. 6e

Structure (SMILES)	AKAP8 localization [1]	FUBP3 localization [1]	MEAF1 localization [1]	SFPQ localization [1]	UNG nuclear intensity [1]	DR1 nuclear signal (1 µM methotrexate (FIG. 10))	GFP-tagged RPA1 localization (1 µM methotrexate (FIG. 10))	GFP-tagged RPA2 localization (1 µM methotrexate (FIG. 10))	NUDT21 nuclear signal (1 µM methotrexate (FIG. 10))	PADI1 protein (1 µM methotrexate (FIG. 10))	RUVBL1 protein (1 µM methotrexate (FIG. 10))	TPI1 nuclear signal (1 µM methotrexate (FIG. 10))	nuclear DNMT1 foci (1 µM methotrexate (FIG. 10))	GFP-tagged ACLY localization (24 h MTX treatment, 1 µM methotrexate (FIG. 10))
Cc1sc2c(c1C)C(c1ccc(Cl)cc1)=N[C@@H](CC(=O)NCCCCCCCCNC(=O)COc1cccc3c1C(=O)N(C1CCC(=O)NC1=O)C3=O)c1nnc(C)n1-2 (some centres unmarked) [dBET6]	gain of nuclear foci	loss of subnuclear localization patterns	loss of subnuclear localization patterns	gain of nuclear foci	loss of nuclear intensity									
CN(Cc1cnc2nc(N)nc(N)c2n1)c1ccc(C(=O)N[C@@H](CCC(=O)O)C(=O)O)cc1 [methotrexate]						gain of nuclear signal	formation of nuclear foci	formation of nuclear foci	gain of nuclear signal	decreases	decreases	gain of nuclear signal	disappearance of nuclear DNMT1 foci	increased nuclear localization
